{"source": "ChEMBL document CHEMBL5032490", "about": "“Neuroactive Type-A γ-Aminobutyric Acid Receptor Allosteric Modulator Steroids from the Hypobranchial Gland of Marine Mollusk, Conus geographus” (J Med Chem, 2021)", "key": {"[1]": {"assay": "Induction of cytosolic calcium ion concentration in mouse microglia cells at 10 uM measured after 1 hr by Fura2AM dye based fluorescence microscopic analysis", "assay_type": "functional"}, "[2]": {"system": "Neuron", "assay": "Negative allosteric modulation of mouse GABA receptor in mouse peptidergic nociceptive DRG neurons assessed as inhibition of KCl-induced response at 10 uM", "assay_type": "tissue-based", "details": "filed as negative allosteric modulator"}, "[3]": {"system": "Mus musculus", "assay": "Anxiolytic activity in restraint stress induced anxiety mouse model assessed as total number of responses at 2 to 50 mg/kg, ip administered measured after 5 mins by plus maze test", "assay_type": "functional, organism-based", "details": "dose 2-50 mg/kg"}, "[4]": {"assay": "Reduction of ATP and Kcl-induced increase in cytosolic Ca2+ ion concentration mouse […] assessed as neuron population at 10 uM measured after 1 hr by Fura2AM dye based fluorescence microscopic analysis", "assay_type": "functional", "set-up": "scale not given: the % may be the effect or the level left"}, "[5]": {"system": "Neuron", "assay": "Negative allosteric modulation of human GABA receptor expressed in mouse DRG neurons assessed as inhibition of 340 nM GABA-induced responses at 0.5 uM using nociceptor", "assay_type": "tissue-based", "details": "filed as negative allosteric modulator"}, "[6]": {"assay": "Induction of cytosolic calcium ion concentration in mouse DRG other neuron subtype at 10 uM measured after 1 hr by Fura2AM dye based fluorescence microscopic analysis", "assay_type": "functional"}, "[7]": {"biological_target": "T1, GABA-A receptor; alpha-2/beta-3/gamma-2 (Homo sapiens, UniProt P18507+P28472+P47869)", "T1 sequence (P18507 whole entry)": "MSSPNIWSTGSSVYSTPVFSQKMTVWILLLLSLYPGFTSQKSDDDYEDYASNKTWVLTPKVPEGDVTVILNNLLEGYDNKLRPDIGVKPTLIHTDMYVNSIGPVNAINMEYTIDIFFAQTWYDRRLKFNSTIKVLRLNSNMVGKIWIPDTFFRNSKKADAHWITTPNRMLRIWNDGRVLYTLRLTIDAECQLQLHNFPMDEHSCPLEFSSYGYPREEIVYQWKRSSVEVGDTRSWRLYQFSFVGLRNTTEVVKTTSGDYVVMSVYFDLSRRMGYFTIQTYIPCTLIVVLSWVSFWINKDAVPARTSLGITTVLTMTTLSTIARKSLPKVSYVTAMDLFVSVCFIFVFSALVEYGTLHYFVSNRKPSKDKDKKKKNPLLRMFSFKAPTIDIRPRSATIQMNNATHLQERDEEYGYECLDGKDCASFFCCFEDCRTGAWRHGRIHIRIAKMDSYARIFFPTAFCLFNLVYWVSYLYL", "T1 sequence (P28472 whole entry)": "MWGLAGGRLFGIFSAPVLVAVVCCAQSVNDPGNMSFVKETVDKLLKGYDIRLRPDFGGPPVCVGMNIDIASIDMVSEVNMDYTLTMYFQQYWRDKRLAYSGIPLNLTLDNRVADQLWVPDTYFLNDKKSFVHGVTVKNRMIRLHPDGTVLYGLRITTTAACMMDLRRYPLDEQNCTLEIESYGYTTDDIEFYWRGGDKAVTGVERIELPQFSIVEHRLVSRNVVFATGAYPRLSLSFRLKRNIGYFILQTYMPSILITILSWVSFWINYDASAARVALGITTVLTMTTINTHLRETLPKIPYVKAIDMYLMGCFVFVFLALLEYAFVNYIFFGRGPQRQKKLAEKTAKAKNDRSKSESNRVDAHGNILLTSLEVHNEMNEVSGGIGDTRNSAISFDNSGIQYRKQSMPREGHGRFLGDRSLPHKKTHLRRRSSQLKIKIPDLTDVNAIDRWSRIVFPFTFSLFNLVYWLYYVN", "T1 sequence (P47869 whole entry)": "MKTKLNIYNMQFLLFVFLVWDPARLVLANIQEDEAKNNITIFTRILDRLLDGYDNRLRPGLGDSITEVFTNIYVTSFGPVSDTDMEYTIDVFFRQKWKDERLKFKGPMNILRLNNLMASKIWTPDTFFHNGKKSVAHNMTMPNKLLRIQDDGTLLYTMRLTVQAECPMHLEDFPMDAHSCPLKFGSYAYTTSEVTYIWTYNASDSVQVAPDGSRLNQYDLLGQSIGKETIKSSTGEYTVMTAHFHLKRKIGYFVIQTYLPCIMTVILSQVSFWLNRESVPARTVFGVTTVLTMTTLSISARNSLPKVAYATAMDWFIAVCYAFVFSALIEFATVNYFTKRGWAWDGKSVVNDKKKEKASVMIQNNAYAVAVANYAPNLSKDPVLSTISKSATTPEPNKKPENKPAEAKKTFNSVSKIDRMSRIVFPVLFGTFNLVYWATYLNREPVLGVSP", "assay": "Negative allosteric modulation activity at human GABAA alpha2beta3gamma2 stably expressed in HEK cells by whole cell patch clamp method", "assay_type": "cell-based"}, "[8]": {"system": "Mus musculus", "assay": "Anxiolytic activity in restraint stress induced anxiety mouse model assessed as total number of responses at 2 to 50 mg/kg, ip administered measured after 5 mins by open field test", "assay_type": "functional, organism-based", "details": "dose 2-50 mg/kg"}, "[9]": {"system": "Mus musculus", "assay": "Antinociceptive activity in C57BL6 mouse model of inflammatory pain assessed as total number of responses during second phase at 2 to 50 mg/kg, ip administered by formalin test", "assay_type": "functional, organism-based", "details": "dose 2-50 mg/kg"}, "[10]": {"biological_target": "T2, GABA A receptor alpha-1/beta-1/gamma-2 (Homo sapiens, UniProt P14867+P18505+P18507)", "T2 sequence (P14867 whole entry)": "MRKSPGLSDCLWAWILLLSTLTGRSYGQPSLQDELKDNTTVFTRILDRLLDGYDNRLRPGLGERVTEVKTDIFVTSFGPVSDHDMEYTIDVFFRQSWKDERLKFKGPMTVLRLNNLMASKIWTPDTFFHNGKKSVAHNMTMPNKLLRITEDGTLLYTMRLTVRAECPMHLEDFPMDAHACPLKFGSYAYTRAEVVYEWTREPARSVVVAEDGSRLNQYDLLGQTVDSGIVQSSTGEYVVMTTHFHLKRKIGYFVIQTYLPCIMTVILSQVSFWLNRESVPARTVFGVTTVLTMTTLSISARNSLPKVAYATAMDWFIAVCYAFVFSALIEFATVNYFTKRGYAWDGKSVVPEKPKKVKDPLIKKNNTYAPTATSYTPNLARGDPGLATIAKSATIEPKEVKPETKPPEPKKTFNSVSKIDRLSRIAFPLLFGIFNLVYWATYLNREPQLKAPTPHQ", "T2 sequence (P18507 whole entry)": "T1 sequence (P18507 whole entry)", "T2 sequence (P18505 whole entry)": "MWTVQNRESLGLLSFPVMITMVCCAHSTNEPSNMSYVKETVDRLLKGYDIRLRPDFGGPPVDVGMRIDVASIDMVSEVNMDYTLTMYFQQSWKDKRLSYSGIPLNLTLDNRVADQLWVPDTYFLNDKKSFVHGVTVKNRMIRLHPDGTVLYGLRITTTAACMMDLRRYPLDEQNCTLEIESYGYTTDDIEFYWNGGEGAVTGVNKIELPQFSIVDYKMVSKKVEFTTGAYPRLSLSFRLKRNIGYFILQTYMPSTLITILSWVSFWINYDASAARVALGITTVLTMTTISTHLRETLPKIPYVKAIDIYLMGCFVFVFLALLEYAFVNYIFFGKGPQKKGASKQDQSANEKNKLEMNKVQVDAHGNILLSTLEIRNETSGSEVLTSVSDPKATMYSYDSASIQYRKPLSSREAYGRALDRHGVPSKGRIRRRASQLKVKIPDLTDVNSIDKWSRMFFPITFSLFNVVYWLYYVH", "assay": "Negative allosteric modulation activity at human GABAA alpha1beta1gamma2 stably expressed in HEK cells by whole cell patch clamp method", "assay_type": "cell-based"}}, "note": "pIC50: −log10 of the molar value. Active and inactive are the calls of the source. The rule behind the calls is not given here.", "data": [{"smiles": "CC(C)CCC[C@@H](C)[C@H]1CC[C@H]2[C@@H]3C(=O)C=C4C=CCC[C@]4(C)[C@H]3CC[C@]12C", "values": [{"measurement": "Activity", "setting": "[1]", "result": 7, "unit": "%"}, {"measurement": "Activity", "setting": "[2]", "result": "Active"}, {"measurement": "Activity", "setting": "[3]", "result": "inactive"}, {"measurement": "Activity", "setting": "[4]", "result": 14, "unit": "%"}, {"measurement": "Activity", "setting": "[5]", "result": "Active"}, {"measurement": "Activity", "setting": "[6]", "result": 3, "unit": "%"}, {"measurement": "pIC50", "setting": "[7]", "result": 4.80}, {"measurement": "Activity", "setting": "[8]", "result": "inactive"}, {"measurement": "Activity", "setting": "[9]", "result": "inactive"}, {"measurement": "pIC50", "setting": "[10]", "result": 5.82}]}]}
